The text below walks through data of patent publication EP1534672B1, “RETINOL DERIVATIVES, THEIR USE IN THE TREATMENT OF CANCER AND FOR POTENTIATING THE EFFICACY OF OTHER CYTOTOXIC AGENTS” (priority 2002, dated 2004).

This experiment relates to Human Breast Adenocarcinoma Cell Line MDA-MB-231. As to the kind of experiment: Drug cytotoxicity testing (viable cell count, trypan blue exclusion, cell growth inhibition). To be noted: for IC50: calculated from three concentrations, read-out: IC50 mol/L (a). It is filed as cell-based. As for the experimental part:
MDA-MB-231 cells were propagated in MEM culture medium with 2 mM L-glutamine, 10% heat-inactivated fetal bovine serum (FBS) and antibiotics. DU 145 cells were cultured in MEM culture medium containing 2 mM L-glutamine, 1 mM sodium pyruvate, 10% FBS and antibiotics. SKOV-3 cells were cultured in McCoy's 5A culture medium, supplemented with 1,5 mM L-glutamine, 10% FBS and antibiotics. A549 cells were cultured in Ham's F-12 culture medium with 1 mM L-glutamine, 10% FBS and antibiotics. All media and supplements were purchased from Sigma-Aldrich (St.Louis, MO, USA). Cell propagation of all lines was carried out in Falcon™ 25 cm^2 cultivation flasks (Becton Dickinson Labware).
Drug cytotoxicity testing was carried out with using Falcon™ 96-well cultivation plates for adherent cells (Becton Dickinson Labware). These plates were seeded by cells either at 12 × 10^3 MDA-MB-231 cells/well, or at 12 × 10^3 DU 145 cells/well, or at 14 × 10^3 SKOV-3 cells/well, or at 10 × 10^3 A549 cells/well in a volume of 200 µL/well.
The cell cultures in cultivation plates were allowed to adhere for 24 hour of incubation. On day 1 after cell seeding, 2 µL solutions of the drugs to be tested in medium with 5% FBS was added to the cultures. In the control cultures, 2 µL of medium with 5% FBS was added as solvent control. The cells were incubated for 2 consecutive days. At the end of the incubation period adherent cells were detached by trypsinization and the number of viable cells was counted using trypan blue exclusion test and a hemocytometer. All data were derived from an average of three determinations each in six replicates. The results were expressed as mean cell number ± SE and the differences between control and test series evaluated by means of Student's t-test. The drug cytotoxicity was evaluated based on the extent of cell growth inhibition. The cell growth inhibition of the tested drugs was calculated as follows: Cell growth inhibition,% = (Control-TestSeries)/(Control) × 100 [formula]
In the case of comparative evaluation of cytotoxicity of the inventive compounds themselves and the formulation related to consecutive dilutions of their initial solutions before adding to the cultures, 2 µL solutions of the drugs to be tested in medium with 5% FBS, in normal saline and in saline with 2,3 mM CaCl2 were added to the cultures. In control cultures, 2 µL of medium with 5% FBS, normal saline and saline with 2,3 mM CaCl2 were added as solvent controls (negative controls). […] Therefore an average of negative controls was calculated. […] Therefore an average of positive controls was calculated (for each antibiotic).

Setting [1] is: Homo sapiens, MDA-MB-231, 48 h, compound alone, final concentration 10^-7 mol/L, working solutions in MEM with 5% FBS, two days, read-out: cell growth inhibition.
Setting [2] is: Homo sapiens, MDA-MB-231, 48 h, compound alone, final concentration 10^-8 mol/L, working solutions in MEM with 5% FBS, two days, read-out: cell growth inhibition.
The mark [3] stands for this setting: Homo sapiens, MDA-MB-231, 48 h, compound alone, final concentration 10^-9 mol/L, working solutions in MEM with 5% FBS, two days, read-out: cell growth inhibition.
Setting [4] is: compound alone, final concentration 10^-7 mol/L, working solutions in MEM with 5% FBS, two days.
Setting [5] is: compound alone, final concentration 10^-8 mol/L, working solutions in MEM with 5% FBS, two days.
Where [6] appears, read: compound alone, final concentration 10^-9 mol/L, working solutions in MEM with 5% FBS, two days.
[7] abbreviates: cytotoxic drug alone 10^-7 mol/L, average of positive controls in medium with 5% FBS, normal saline and saline with 2,3 mM CaCl2, hydrochloride.
Where [8] appears, read: cytotoxic drug alone 10^-8 mol/L, average of positive controls in medium with 5% FBS, normal saline and saline with 2,3 mM CaCl2, hydrochloride.
[9] abbreviates: cytotoxic drug alone 10^-9 mol/L, average of positive controls in medium with 5% FBS, normal saline and saline with 2,3 mM CaCl2, hydrochloride.

Molecules are shown by their SMILES. Values joined by “and” are separate entries in the source; they are usually repeats but may differ in a detail not shown here. Identical values can stand only once. Counter-ions that a name gives are not always drawn. Like-named read-outs stand apart in the source and are kept apart here. Marks after values point to notes of the source that are not given here.

The inhibition is the drop in the measured response relative to a control, in per cent. Turning to `CCOC(=O)[C@H](CS(=O)(=O)O)NC(=O)/C=C(C)/C=C/C=C(C)/C=C/C1=C(C)CCCC1(C)C` [compound I-1b, N-(all-trans-retlnoyl)-L-cysteic acid ethyl ester], the inhibition at 0.1 µM under setting [1] was found to be 46.7%. The inhibition at 0.01 µM under setting [2] came out at 44.2%. Besides, the inhibition at 0.001 µM under setting [3] is 39.2%. Also, the “number of viable cells” value by setting is: under setting [4], 30.5 ± 1.82 × 10^3; under setting [5], 31.9 ± 2.16 × 10^3; under setting [6], 34.8 ± 2.41 × 10^3.
Turning to `CC1=C(/C=C/C(C)=C/C=C/C(C)=C/C(=O)N[C@@H](CS(=O)(=O)O)C(=O)OC(C)C)C(C)(C)CCC1` [compound I-1c, N-(all-trans-retinoyl)-Lwcysteic acid isopropyl ester], under setting [2], the inhibition at 0.01 µM amounted to 46.9%. For the same compound, the inhibition at 0.001 µM under setting [3] was found to be 40.6%. Also, the “number of viable cells” value reads like this: under setting [4], 28.9 ± 1.52 × 10^3; under setting [5], 30.4 ± 1.79 × 10^3; under setting [6], 34.0 ± 2.13 × 10^3.
Turning to `COc1cccc2c1C(=O)c1c(O)c3c(c(O)c1C2=O)C[C@@](O)(C(=O)CO)C[C@@H]3O[C@H]1C[C@H](N)[C@H](O)[C@H](C)O1` [Doxorubicin, (8S,10S)-10-[(3-amino-2,3,6-trideoxy-α-L-lyxo-hexopyranosyl)oxy]-8-glycolyl-7,8,9,10-tetrahydro-6,8,11-trihydroxy-1-methoxy-5,12-naphtacenedione hydrochloride, reference compound], the IC50 is 76 nM (Homo sapiens, MDA-MB-231, as concentration of cytotoxic drug, alone or in formulation at molar ratio 1:6, medium with 5% FBS); 62 nM (Homo sapiens, MDA-MB-231, cytotoxic drug alone, average of positive controls); 64 nM (cytotoxic drug alone, average of positive controls, hydrochloride). The inhibition at 0.1 µM reads like this: (Homo sapiens, MDA-MB-231, cytotoxic drug 10^-7 mol/L (100 nM), alone or in formulation at molar ratio 1:6, working solutions in medium with 5% FBS, read-out: Cell Growth Inhibition, %) 53.6%; (Homo sapiens, MDA-MB-231, cytotoxic drug alone 10^-7 mol/L, average of positive controls in medium with 5% FBS, normal saline and saline with 2,3 mM CaCl2, read-out: Cell Growth Inhibition, %) 55.4%. Further, the inhibition at 0.01 µM by setting is: (Homo sapiens, MDA-MB-231, cytotoxic drug 10^-8 mol/L, alone or in formulation at molar ratio 1:6, working solutions in medium with 5% FBS, read-out: Cell Growth Inhibition, %) 26.4%; (Homo sapiens, MDA-MB-231, cytotoxic drug alone 10^-8 mol/L, average of positive controls in medium with 5% FBS, normal saline and saline with 2,3 mM CaCl2, read-out: Cell Growth Inhibition, %) 29.4%. Further, the inhibition at 0.001 µM reads like this: (Homo sapiens, MDA-MB-231, cytotoxic drug 10^-9 mol/L, alone or in formulation at molar ratio 1:6, working solutions in medium with 5% FBS, read-out: Cell Growth Inhibition, %) 13.8%; (Homo sapiens, MDA-MB-231, cytotoxic drug alone 10^-9 mol/L, average of positive controls in medium with 5% FBS, normal saline and saline with 2,3 mM CaCl2, read-out: Cell Growth Inhibition, %) 19.4%. For the same compound, the “Tumor Cell Number, × 10^3” value is, setting by setting: (cytotoxic drug 10^-7 mol/L (100 nM), alone or in formulation at molar ratio 1:6, working solutions in medium with 5% FBS, hydrochloride) 26.2 ± 1.29 × 10^3; (cytotoxic drug 10^-7 mol/L (100 nM), alone or in formulation at molar ratio 1:6, working solutions in medium with 5% FBS, listed as doxorubicin, hydrochloride) 23.6 ± 1.02 × 10^3; (cytotoxic drug 10^-8 mol/L, alone or in formulation at molar ratio 1:6, working solutions in medium with 5% FBS) 41.0 ± 1.50 × 10^3; (cytotoxic drug 10^-9 mol/L, alone or in formulation at molar ratio 1:6, working solutions in medium with 5% FBS) 48.0 ± 1.85 × 10^3; under setting [7], 25.5±0.71 × 10^3 and 25.2±1.56 × 10^3; under setting [8], 40.4±1.65 × 10^3 and 41.0±0.96 × 10^3. In addition, under setting [9], the “Tumor Cell Number, × 10^3” value is 46.1±2.07 × 10^3 and 45.6±1.38 × 10^3. Besides, the “Cell Growth Inhibition, %” value reads like this: (cytotoxic drug 10^-7 mol/L (100 nM), alone or in formulation at molar ratio 1:6, working solutions in medium with 5% FBS, hydrochloride, 0.1 µM) 53.0* %; under setting [7], 55.3* %; under setting [8], 27.3 * %; under setting [9], 19.1* %.
Turning to `CCOC(=O)[C@H](CS(=O)(=O)O)NC(=O)\C=C(C)/C=C/C=C(C)/C=C/C1=C(C)CCCC1(C)C` [compound II-1b, N-(13-cis-retinoyl)-L-cysteic acid ethyl ester], under setting [1], the inhibition at 0.1 µM stood at 49.1%. Further, the inhibition at 0.01 µM under setting [2] amounted to 46.3%. For the same compound, under setting [3], the inhibition at 0.001 µM is 41.4%. The “number of viable cells” value runs as follows: under setting [4], 29.8 ± 1.70 × 10^3; under setting [5], 31.4 ± 1.94 × 10^3; under setting [6], 34.3 ± 1.88 × 10^3.
In the case of `CCCOC(=O)[C@H](CS(=O)(=O)O)NC(=O)\C=C(C)/C=C/C=C(C)/C=C/C1=C(C)CCCC1(C)C` [compound II-1d, N-(13-cis-retinoyl)-L-cysteic acid propyl ester], the inhibition at 0.1 µM under setting [1] amounted to 53.7%. The inhibition at 0.01 µM under setting [2] is 50.4%. Besides, under setting [3], the inhibition at 0.001 µM amounted to 44.9%. The “number of viable cells” value is, setting by setting: under setting [4], 26.3 ± 1.86 × 10^3; under setting [5], 28.2 ± 1.29 × 10^3; under setting [6], 31.3 ± 2.68 × 10^3.
`CCCOC(=O)[C@H](CS(=O)(=O)O)NC(=O)/C=C(C)/C=C/C=C(C)/C=C/C1=C(C)CCCC1(C)C` [compound I-1d, N-(all-trans-retinoyl)-L-cysteic acid propyl ester]: the inhibition at 0.1 µM under setting [1] is 54.8%. In addition, the inhibition at 0.01 µM under setting [2] stood at 50.7%. Besides, under setting [3], the inhibition at 0.001 µM is 45.2%. In addition, the “number of viable cells” value is recorded as 24.1 ± 1.46 × 10^3 under setting [4], 26.3 ± 1.67 × 10^3 under setting [5] and 29.2 ± 1.89 × 10^3 under setting [6].
Turning to `CC1=C(/C=C/C(C)=C/C=C/C(C)=C\C(=O)N[C@@H](CS(=O)(=O)O)C(=O)O)C(C)(C)CCC1` [compound II-1, N-(13-cis-Retinoyl)-L-cysteic acid], the inhibition at 0.1 µM amounted to 42.7% (Homo sapiens, MDA-MB-231, compound alone 10^-7 mol/L, in A (saline with […] CaCl2), read-out: cell growth inhibition); 32.2% (Homo sapiens, MDA-MB-231, compound alone 10^-7 mol/L, in B (normal saline), read-out: cell growth inhibition); 15.5% (Homo sapiens, MDA-MB-231, compound alone 10^-7 mol/L, read-out: Cell growth inhibition in A compared to that in B was increased by). The inhibition at 0.01 µM stood at 41.3% (Homo sapiens, MDA-MB-231, compound alone 10^-8 mol/L, in A (saline with […] CaCl2), read-out: cell growth inhibition); 30.6% (Homo sapiens, MDA-MB-231, compound alone 10^-8 mol/L, in B (normal saline), read-out: cell growth inhibition); 15.4% (Homo sapiens, MDA-MB-231, compound alone 10^-8 mol/L, read-out: Cell growth inhibition in A compared to that in B was increased by). Besides, the inhibition at 0.001 µM (Homo sapiens, MDA-MB-231, compound alone 10^-9 mol/L, in A (saline with […] CaCl2), read-out: cell growth inhibition) amounted to 37.4%; the inhibition at 0.001 µM (Homo sapiens, MDA-MB-231, compound alone 10^-9 mol/L, in B (normal saline), read-out: cell growth inhibition) worked out at 25.5%; the inhibition at 0.001 µM (Homo sapiens, MDA-MB-231, compound alone 10^-9 mol/L, read-out: Cell growth inhibition in A compared to that in B was increased by) was 16%. Moreover, the “number of viable cells” value is, setting by setting: (compound alone 10^-7 mol/L, in B (normal saline)) 38.6 ± 1.25 × 10^3; (compound alone 10^-8 mol/L, in B (normal saline)) 39.5 ± 1.46 × 10^3; (compound alone 10^-9 mol/L, in B (normal saline)) 42.4 ± 1.63 × 10^3. In addition, the “cell growth inhibition reached on increase of the concentration, in (B)” value (sodium salt, range 10^-9 to 10^-7 M, dilution in normal saline (B)) was approximately 32%.
